{"source": "paper PMC3862803", "about": "“Human Breast Tumor Cells Are More Resistant to Cardiac Glycoside Toxicity Than Non-Tumorigenic Breast Cells” (PLoS ONE, 2013)", "key": {"MCF7 cells [1]": {"test_system": "MCF7 cells", "assay": "TUNEL apoptosis assay", "assay_type": "cell-based, human", "details": "6 hours"}, "MCF10A cells [2]": {"test_system": "MCF10A cells", "assay": "PrestoBlue viability assay", "assay_type": "cell-based, human", "details": "for IC50: Homo sapiens, MCF-10A, 24 hours, mean ± SE, n>3, read-out: Reduced cell viability (IC50)", "procedure": "(§1) To determine cell growth curves, cells were trypsinized, counted using a Scepter Cell Counter (Millipore, Billerica, MA), plated in a 96-well plate at a density of 1,000, 3,000, 5,000, or 10,000 cells per well, and allowed to attach overnight. On day 2, growth curves were determined using the PrestoBlue Viability Assay (Life Technologies, Grand Island, NY) to ensure cell densities used for viability and proliferation assays were in linear growth phase."}, "MCF10CA1 cells [3]": {"test_system": "MCF10CA1 cells", "assay": "TUNEL apoptosis assay", "assay_type": "cell-based, human", "details": "6 hours", "procedure": "(§2) As a positive control, MCF10A and MCF10CA1 cells were treated with DNaseI for 15 minutes prior to assay. Cells were fixed and permeabilized prior to Terminal deoxynucleotidyl transferase dUTP nick end labeling (TUNEL) staining of DNA fragmentation using the ApopTag Fluorescein In Situ Apoptosis Detection Kit according to manufacturer’s instructions (Millipore, Billerica, MA). Slides were covered with Vectashield Mounting Medium with DAPI (Vector Laboratories, Burlingame, CA) and sealed with a glass coverslip. Images were detected and analyzed using Zeiss LSM 5 Pascal microscope and software."}, "MCF10A cells [4]": {"test_system": "MCF10A cells", "assay": "TUNEL apoptosis assay", "assay_type": "cell-based, human", "details": "6 hours", "procedure": "as §2"}, "MDA-MB-231 cells [5]": {"test_system": "MDA-MB-231 cells", "assay": "TUNEL apoptosis assay", "assay_type": "cell-based, human", "details": "6 hours", "procedure": "as §2"}, "MDA-MB-231 cells [6]": {"test_system": "MDA-MB-231 cells", "assay": "PrestoBlue viability assay", "assay_type": "cell-based, human", "details": "for IC50: Homo sapiens, MDA-MB-231, 24 h, read-out: Reduced cell viability (IC50)"}, "MCF10CA1 cells [7]": {"test_system": "MCF10CA1 cells", "assay": "PrestoBlue viability assay", "assay_type": "cell-based", "details": "Homo sapiens; MCF10CA1, 24 hours; mean ± SE, n>3; read-out: Reduced cell viability (IC50)", "procedure": "as §1"}, "184D cells": {"test_system": "184D cells", "assay": "PrestoBlue viability assay", "assay_type": "cell-based", "details": "Homo sapiens, 24 hours, mean ± SE, n>3, read-out: Reduced cell viability (IC50)", "procedure": "as §1"}, "184A1 cells": {"test_system": "184A1 cells", "assay": "PrestoBlue viability assay", "assay_type": "cell-based", "details": "Homo sapiens; 184A1, 24 hours; mean ± SE, n>3; read-out: Reduced cell viability (IC50)", "procedure": "as §1"}, "Na,K-ATPase": {"molecular_target": "T1, Na,K-ATPase (Homo sapiens, UniProt P05023)", "T1 construct": "The Na,K-ATPase activity in total membranes isolated from non-tumorous 184D, 184A, and MCF10A (10A) cells; endogenous in cells; host or cells: total membranes of MCF10A, 184D, 184A1, MCF10CA1, MCF7 and MDA-MB-231 human breast cells", "assay": "biochemical", "assay_type": "biochemical", "details": "for IC50: mean ± SE, n>3, read-out: IC50 for CTS inhibition of ATPase activity"}, "prostate cancer": {"test_system": "prostate cancer", "details": "digoxin use, large prospective cohort study; cited from earlier work"}, "MDA-MB-231 cells [8]": {"test_system": "MDA-MB-231 cells", "assay": "BrdU cell proliferation assay", "assay_type": "cell-based, human"}, "p-ERK1/2": {"test_system": "p-ERK1/2", "assay": "Western blot of cell lysates for p-ERK1/2", "assay_type": "cell-based, human", "details": "for p-ERK levels in lysates (western blot): 50 nM or 500 nM ouabain for 24 hours; for p-ERK1/2 levels in lysates (western blot): 500 nM ouabain"}, "MCF7 cells [9]": {"test_system": "MCF7 cells", "assay": "BrdU cell proliferation assay", "assay_type": "cell-based, human", "details": "500 nM ouabain for 24 hours", "procedure": "BrdU label was added to cells in fresh culture medium with or without ouabain for two hours according to manufacturer’s recommendations. BrdU incorporation into the DNA of proliferating cells was detected using an anti-BrdU primary antibody and Peroxidase Goat Anti-mouse secondary antibody. Fluorescence was quantified using a FLUOStar Omega microplate reader (BMG Labtech)."}, "MCF10CA1 cells [10]": {"test_system": "MCF10CA1 cells", "assay": "BrdU cell proliferation assay", "assay_type": "cell-based, human"}, "MCF10A cells [11]": {"test_system": "MCF10A cells", "assay": "BrdU cell proliferation assay", "assay_type": "cell-based, human", "details": "500 nM ouabain for 2 hours, P<0.001"}, "[12]": {"details": "24 hour ouabain at high concentrations (500 nM)"}}, "note": "Like-named read-outs stand apart in the source and are kept apart here."}
{"smiles": "C[C@]12CC[C@H](O)C[C@H]1CC[C@@H]1[C@@H]2CC[C@]2(C)[C@@H](c3ccc(=O)oc3)CC[C@]12O", "note": "[Bufalin, bufalin]", "values": [{"measurement": "Cells exhibiting DNA fragmentation (TUNEL), a marker for apoptosis", "setting": "MCF7 cells [1]; 50 nM bufalin", "value": "< 5", "unit": "%"}, {"measurement": "IC50", "setting": "MCF10A cells [2]", "value": "465 ± 25.9", "unit": "nM"}, {"measurement": "Cells exhibiting DNA fragmentation (TUNEL), a marker for apoptosis", "setting": "MCF10CA1 cells [3]; 50 nM bufalin", "value": "< 5", "unit": "%"}, {"measurement": "Cells exhibiting DNA fragmentation (TUNEL), a marker for apoptosis", "setting": "MCF10A cells [4]; 50 nM bufalin", "value": "Over 90%"}, {"measurement": "Cells exhibiting DNA fragmentation (TUNEL), a marker for apoptosis", "setting": "MDA-MB-231 cells [5]; 50 nM bufalin", "value": "< 5", "unit": "%"}, {"measurement": "IC50", "setting": "MDA-MB-231 cells [6]", "value": "936.4 ± 4.9", "unit": "nM"}, {"measurement": "IC50", "setting": "MCF10CA1 cells [7]", "value": "635 ± 172", "unit": "nM"}, {"measurement": "IC50", "setting": "184D cells", "value": "329 ± 11.2", "unit": "nM"}, {"measurement": "IC50", "setting": "184A1 cells", "value": "319 ± 6.1", "unit": "nM"}]}
{"smiles": "C[C@H]1O[C@@H](O[C@H]2[C@@H](O)C[C@H](O[C@H]3[C@@H](O)C[C@H](O[C@H]4CC[C@@]5(C)[C@H](CC[C@@H]6[C@@H]5CC[C@]5(C)[C@@H](C7=CC(=O)OC7)CC[C@]65O)C4)O[C@@H]3C)O[C@@H]2C)C[C@H](O)[C@@H]1O", "note": "[Digitoxin, digitoxin]", "values": [{"measurement": "IC50", "setting": "MCF10A cells [2]", "value": "1570 ± 191", "unit": "nM"}, {"measurement": "IC50", "setting": "MDA-MB-231 cells [6]", "value": "3680 ± 150", "unit": "nM"}, {"measurement": "IC50", "setting": "MCF10CA1 cells [7]", "value": "3680 ± 89.5", "unit": "nM"}, {"measurement": "IC50", "setting": "184D cells", "value": "1270 ± 65.4", "unit": "nM"}, {"measurement": "IC50", "setting": "184A1 cells", "value": "1440 ± 29.3", "unit": "nM"}, {"measurement": "IC50", "setting": "Na,K-ATPase; total membranes of 184A1 cells", "value": "1830 ± 88.7", "unit": "nM"}, {"measurement": "IC50", "setting": "Na,K-ATPase; total membranes of 184D cells", "value": "2070 ± 307", "unit": "nM"}, {"measurement": "IC50", "setting": "Na,K-ATPase; total membranes of MCF7 cells", "value": "1160 ± 42.7", "unit": "nM"}, {"measurement": "IC50", "setting": "Na,K-ATPase; total membranes of MCF10A cells", "value": "1350 ± 85.2", "unit": "nM"}, {"measurement": "IC50", "setting": "Na,K-ATPase; total membranes of MCF10CA1 cells", "value": "1480 ± 73.8", "unit": "nM"}, {"measurement": "IC50", "setting": "Na,K-ATPase; total membranes of MDAMB231 cells", "value": "1180 ± 155", "unit": "nM"}]}
{"smiles": "C[C@H]1O[C@@H](O[C@H]2[C@@H](O)C[C@H](O[C@H]3[C@@H](O)C[C@H](O[C@H]4CC[C@@]5(C)[C@H](CC[C@@H]6[C@@H]5C[C@@H](O)[C@]5(C)[C@@H](C7=CC(=O)OC7)CC[C@]65O)C4)O[C@@H]3C)O[C@@H]2C)C[C@H](O)[C@@H]1O", "note": "[digoxin]", "values": [{"measurement": "Prevention of prostate cancer", "setting": "prostate cancer", "value": "≤ 25", "unit": "%"}]}
{"smiles": "C[C@@H]1O[C@@H](O[C@H]2C[C@@H](O)[C@]3(CO)[C@H]4[C@H](O)C[C@]5(C)[C@@H](C6=CC(=O)OC6)CC[C@]5(O)[C@@H]4CC[C@]3(O)C2)[C@H](O)[C@H](O)[C@H]1O", "note": "[Ouabain, ouabain]", "values": [{"measurement": "Cells exhibiting DNA fragmentation (TUNEL), a marker for apoptosis", "setting": "MCF7 cells [1]; 500 nM ouabain", "value": "< 5", "unit": "%"}, {"measurement": "Proliferation (BrdU incorporation)", "setting": "MDA-MB-231 cells [8]; [12]", "value": "slight decrease in proliferation"}, {"measurement": "Proliferation (BrdU incorporation)", "setting": "MDA-MB-231 cells [8]; short-term (2 hours) ouabain", "value": "not affected"}, {"measurement": "Cell viability over treatment duration", "setting": "MCF10A cells [2]; 500 nM ouabain, after 2 days (0 to 48 hours)", "value": "nearly all of the MCF10A cells have died"}, {"measurement": "IC50", "setting": "MCF10A cells [2]", "value": "2170 ± 192", "unit": "nM"}, {"measurement": "Cell viability at varied serum concentration", "setting": "MCF10A cells [2]; reduced serum (0-10% serum), 500 nM ouabain for 24 hours", "value": "increased ouabain sensitivity"}, {"measurement": "p-ERK levels in lysates (western blot)", "setting": "p-ERK1/2; A2780CP (cisplatin resistant) cells", "value": "increased levels of p-ERK"}, {"measurement": "p-ERK levels in lysates (western blot)", "setting": "p-ERK1/2; A2780 cells", "value": "increased levels of p-ERK"}, {"measurement": "p-ERK1/2 levels in lysates (western blot)", "setting": "p-ERK1/2; MCF10A, 24 hours (any treatment condition)", "value": "did not contain detectable levels of activated p-ERK1/2"}, {"measurement": "p-ERK1/2 levels in lysates (western blot)", "setting": "p-ERK1/2; MCF10CA1, 24 hours", "value": "elevated p-ERK1/2 levels"}, {"measurement": "p-ERK1/2 levels in lysates (western blot)", "setting": "p-ERK1/2; MDA-MB-231, 24 hours", "value": "elevated p-ERK1/2 levels"}, {"measurement": "Cells exhibiting DNA fragmentation (TUNEL), a marker for apoptosis", "setting": "MCF10CA1 cells [3]; 500 nM ouabain", "value": "< 5", "unit": "%"}, {"measurement": "Cells exhibiting DNA fragmentation (TUNEL), a marker for apoptosis", "setting": "MCF10A cells [4]; 500 nM ouabain", "value": "Over 90%"}, {"measurement": "Cells exhibiting DNA fragmentation (TUNEL), a marker for apoptosis", "setting": "MDA-MB-231 cells [5]; 500 nM ouabain", "value": "< 5", "unit": "%"}, {"measurement": "Proliferation (BrdU incorporation)", "setting": "MCF7 cells [9]", "value": "no change to proliferation"}, {"measurement": "Proliferation (BrdU incorporation)", "setting": "MCF10CA1 cells [10]; [12]", "value": "slight decrease in proliferation"}, {"measurement": "Proliferation (BrdU incorporation)", "setting": "MCF10CA1 cells [10]; short-term (2 hours) ouabain", "value": "not affected"}, {"measurement": "Cell viability at varied serum concentration", "setting": "MDA-MB-231 cells [6]; MDA-MB-231, 0-10% serum, 500 nM ouabain for 24 hours", "value": "not affected"}, {"measurement": "IC50", "setting": "MCF10CA1 cells [7]", "value": "2670 ± 574", "unit": "nM"}, {"measurement": "IC50", "setting": "184D cells", "value": "1350 ± 155", "unit": "nM"}, {"measurement": "IC50", "setting": "184A1 cells", "value": "1490 ± 45.3", "unit": "nM"}, {"measurement": "Proliferation (BrdU incorporation)", "setting": "MCF10A cells [11]", "value": "decrease in proliferation"}, {"measurement": "ATPase inhibition at varied serum level", "setting": "Na,K-ATPase; MCF10A isolated membranes, 0-10% serum, 500 nM ouabain, p > 0.05", "value": "No significant difference in ATPase inhibition"}]}
